≈ marks a conversion by molar mass, not a printed value. Like-named read-outs stand apart in the source and are kept apart here.
Experiments:
[1] = Mouse liver microsomal stability; conditions: microsomes, pH 7.4
MERS-CoV = test: microbe, parasite or virus in culture; format: cell-based; conditions: Middle East respiratory syndrome-related coronavirus, Huh-7, read-out: pEC50 (MERS-CoV CPE reduction assay) (converted)
physchem = conditions: pH 7.4
in vitro [2] = conditions: mouse, microsomes, pH 7.4
[3] = microsomes, 10 µM, pH 7.4
thrombin = target: T1, thrombin (Homo sapiens, UniProt P00734); test: Protease panel: thrombin; format: biochemical
T1 construct: preincubated with thrombin (10 nM, Sigma); purchased Sigma-Aldrich

[4] = tested on: luciferase-expressing VSV (ΔG) pseudotyped with Spike from SARS-CoV-2; test: microbe, parasite or virus in culture; format: cell-based; conditions: Vesicular stomatitis virus, Vero C1008, read-out: Entry reporter assay pEC50 (converted)
[5] = target: mouse cathepsin L (mCTSL) (Mus musculus, UniProt P06797); test: mCTSL biochemical assay; conditions: read-out: pIC50 (mouse CTSL) (converted)
SARS-CoV = test: microbe, parasite or virus in culture; format: cell-based; conditions: Severe acute respiratory syndrome coronavirus, read-out: pEC50 (SARS-CoV CPE reduction assay) (converted)
Caspase 2 = target: T2, Caspase 2 (Homo sapiens, UniProt P42575); test: Protease panel: Caspase 2; format: biochemical
T2 construct: purchased Eurofins Discovery (assay service); host or cells: E. coli
T2 sequence (P42575 170-325 limits assumed): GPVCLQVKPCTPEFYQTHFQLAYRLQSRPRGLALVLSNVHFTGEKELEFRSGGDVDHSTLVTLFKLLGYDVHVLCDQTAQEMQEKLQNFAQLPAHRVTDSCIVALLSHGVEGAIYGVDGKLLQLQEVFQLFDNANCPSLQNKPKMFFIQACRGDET
T2 sequence (P42575 348-452 limits assumed): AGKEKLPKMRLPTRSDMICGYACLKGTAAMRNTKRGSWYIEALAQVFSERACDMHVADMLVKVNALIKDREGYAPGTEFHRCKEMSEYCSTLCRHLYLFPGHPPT

SARS-CoV-2 M^pro = SARS-CoV-2 M^pro (Severe acute respiratory syndrome coronavirus 2, UniProt P0DTD1); test: biochemical; format: biochemical; conditions: read-out: M^pro biochemical assay pIC50 (converted)
in vitro [6] = conditions: African green monkey
[7] = target: mouse cathepsin B (mCTSB) (Mus musculus, UniProt P10605); test: mCTSB biochemical assay; conditions: read-out: pIC50 (mouse CTSB) (converted)
mouse cathepsin B (mCTSB), sequence (P10605 80-339): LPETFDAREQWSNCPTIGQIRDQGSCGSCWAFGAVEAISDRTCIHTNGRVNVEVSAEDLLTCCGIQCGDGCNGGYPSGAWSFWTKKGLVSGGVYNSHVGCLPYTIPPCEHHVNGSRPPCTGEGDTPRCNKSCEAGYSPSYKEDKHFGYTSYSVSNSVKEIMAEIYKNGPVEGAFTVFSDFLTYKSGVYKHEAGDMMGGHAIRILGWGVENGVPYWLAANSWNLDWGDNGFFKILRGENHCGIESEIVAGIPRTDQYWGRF

mouse cathepsin L (mCTSL), sequence (P06797 114-334): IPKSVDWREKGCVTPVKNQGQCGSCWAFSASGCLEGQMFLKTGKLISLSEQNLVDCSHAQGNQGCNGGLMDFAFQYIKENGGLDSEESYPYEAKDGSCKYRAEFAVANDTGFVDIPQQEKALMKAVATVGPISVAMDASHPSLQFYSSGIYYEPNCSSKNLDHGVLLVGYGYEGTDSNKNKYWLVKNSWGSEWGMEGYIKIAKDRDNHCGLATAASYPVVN

## COc1cccc2[nH]c(C(=O)N[C@@H](Cc3cccc(F)c3)C(=O)N[C@@H](C[C@@H]3CCNC3=O)C(=O)COc3c(F)c(F)c(CO)c(F)c3F)cc12 [compound 1, N-((S)-3-(3-Fluorophenyl)-1-oxo-1-(((S)-3-oxo-1-((S)-2-oxopyrrolidin-3-yl)-4-(2,3,5,6-tetrafluoro-4-(hydroxymethyl)phenoxy)butan-2-yl)amino)propan-2-yl)-4-methoxy-1H-indole-2-carboxamide]
[1]
  half-life at 1 µM: 1.18 min
MERS-CoV
  EC50: 5.25 nM
physchem
  solubility kinetic at 24 h: 18 µM (≈ 12.6 µg/mL)
In vitro [2]
  microsomal CLint at 1 µM: 586 µL/min/mg
  remaining at 1 h, 1 µM: 0%
[3]; 0 h
  Peak area (%) by LCMS, mouse liver microsomal stability assay of 1: 100%
[3]; 5 min
  Peak area (%) by LCMS, mouse liver microsomal stability assay of 1: 86.9%
[3]; 0.25 h
  Peak area (%) by LCMS, mouse liver microsomal stability assay of 1: 67.9%
[3]; 0.5 h
  Peak area (%) by LCMS, mouse liver microsomal stability assay of 1: 48.7%
[3]; 0.75 h
  Peak area (%) by LCMS, mouse liver microsomal stability assay of 1: 35.8%
[3]; 1 h
  Peak area (%) by LCMS, mouse liver microsomal stability assay of 1: 32.6%
thrombin
  inhibition at 10 µM: 0.2 ± 1.1%
[4]
  EC50: 2510 nM
[5]
  IC50: 83.2 nM
SARS-CoV
  EC50: 302 nM
Caspase 2
  inhibition at 10 µM: 11%
SARS-CoV-2 M^pro
  IC50: 2.45 nM
In vitro [6]
  CC50: > 1000 nM

## CC(C)(O)c1c(F)c(F)c(OCC(=O)[C@H](C[C@@H]2CCNC2=O)NC(=O)[C@@H]2[C@@H]3[C@H](CN2C(=O)[C@@H](NC(=O)C(F)(F)F)C(C)(C)C)C3(C)C)c(F)c1F [compound 14, (1R,2S,5S)-3-((S)-3,3-Dimethyl-2-(2,2,2-trifluoroacetamido)butanoyl)-6,6-dimethyl-N-((S)-3-oxo-1-((S)-2-oxopyrrolidin-3-yl)-4-(2,3,5,6-tetrafluoro-4-(2-hydroxypropan-2-yl)phenoxy)butan-2-yl)-3-azabicyclo[3.1.0]hexane-2-carboxamide]
physchem
  solubility kinetic at 24 h: 77.2 µM (≈ 57 µg/mL)
thrombin
  inhibition at 10 µM: 4.1 ± 1.5%
[4]
  EC50: > 30200 nM
[5]
  IC50: > 50100 nM
[7]
  IC50: 5010 nM
Caspase 2
  inhibition at 10 µM: 7%
In vitro [6]
  CC50: > 501 nM

Reference: publication PMC12169608, “Peptidomimetic Phenoxymethyl Ketone Warheads as Potent Dual-Mode Inhibitors against SARS-CoV‑2 M^pro and Cathepsin” (Journal of Medicinal Chemistry, 2025)
